By viability is commonly meant a per cent measure of how many cells are alive, often set against a control. Read a low viability as a greater loss of cells.

Structures are written as SMILES.

Holding throughout (format): cell-based
The test system of data set [1] is PC12 cells. As to the kind of experiment: MTT cell viability assay, PC12 cell line. To be noted: negative control amino acid, increasing amount. As for the experimental part: (§1) Cell cytotoxicity experiments—CHO cells (2×10^5 cells/mL) were cultured in 96-well micro plates (100 μL/well) and incubated overnight at 37° C. 100 μL of phenylalanine was added to each well dissolved in Dulbecco's Modified Eagle Medium (DMEM) (Beit Haemek, Israel) at various concentrations. Each experiment was repeated 3 times. Following incubation for 6 hours at 37° C., cell viability was evaluated using the 3-(4,5-dimethylthiazolyl-2)-2,5-diphenyltetrazolium bromide (MTT) assay. Briefly, 20 μL of 5 mg/mL MTT dissolved in PBS was added to each well. After 4 hours incubation at 37° C., 100 μL of extraction buffer [20% SDS dissolved in a solution of 50% dimethylformamide and 50% DDW (pH 4.7)] was added to each well, and the plates were incubated again overnight at 37° C. Finally, color intensity was measured using an ELISA reader at 570 nm.
(§2) The present inventors next examined whether, like many amyloid structures, phenylalanine assemblies have a cytotoxic effect. This was examined in a physiological range of concentration, similar to that detected in untreated PKU patients. We performed in vitro cellular viability experiments. To this end, elevated concentrations of phenylalanine ranging from 0.1 μM to 15 mM were added to […] cultured PC12 cells. […] In the presence of 1.8 mM phenylalanine, PC12 cell viability was decreased to approximately 80%. […] In the presence of 6 mM phenylalanine, CHO cell viability was decreased to 84%. Moreover, the viability of the cells in the presence of phenylalanine at concentration of 12 mM was lower than 40% (FIG. 2A). The present assay is performed at much shorter time scales than those of disease progression and this may account for the slightly elevated concentrations than those typically found at PKU patients. It is also possible that such high concentrations of phenylalanine occur pathologically in PKU patients due to transient local high concentration in the brain. […] The present inventors further assessed the influence of the phenylalanine fibrils on the CHO cells using scanning electron microscope.

Data set [2] deals with CHO cells. Briefly: Scanning electron microscopy imaging of CHO cells. To be noted: incubation with phenylalanine fibrils 6 hour, SEM. On the procedure:
Scanning electron microscopy imaging of CHO cells—CHO cell were cultured on glass cover slips located in 24-well micro plates, then incubated with various concentration of phenylalanine fibrils for 6 hour at 37° C., as described in the cell cytotoxicity experiments section. The cell were fixated on the glass cover slip with 2.5% glutaraldehyde, then dehydrated and coated with gold. Scanning electron microscopy images were made using a JSM JEOL 840A SEM operating at 5 kV.

The nature of data set [3]: MTT cell viability assay, CHO cell line. To be noted: Chinese hamster, CHO cells. As for the experimental part:
as §1

Data set [4] is described as follows: Immuno precipitation and cell cytotoxicity experiments (MTT). Particulars: Chinese hamster, prior to IP, CHO cells. On the procedure:
as §1
Immuno precipitation and cell cytotoxicity experiments—Phenylalanine solution at concentration of 7.5, 1.87, 0.46, 0.11 were either incubated with CHO cell or immuno-precipitate and then the solutions, without the fibrils, were incubated with CHO cell according to cell cytotoxicity experiments detailed above. Samples were immuno-precipitated with anti-phenylalanine fibrils antibodies (1:10) over night at 4° C. (previously purified on protein A column, in PBS+2% BSA).

A short description of data set [5]: MTT cell viability assay, PC12 cell line. Particulars: rat, PC12 cells. On the procedure: as §1, §2
A general note: Tetrazolium assays rely on reduction of a dye to a coloured formazan, in cell work by metabolically active cells.

In the case of `C[C@H](N)C(=O)O` [Alanine, reference compound], the “toxic effect (cytotoxicity)” value in data set [1] is “did not demonstrate a toxic effect”.
As for `N[C@@H](Cc1ccccc1)C(=O)O` [phenylalanine], the CHO cell morphology result in data set [2] was “smaller and rounded”. Moreover, the CHO cell density result in data set [2] (compared to untreated cells) is reported as “very low density”. The compound also gave a viability at 6 h, 6 mM in data set [3] (6 mM phenylalanine) of 84%. In data set [3] (12 mM phenylalanine), this compound showed a viability at 6 h, 12 mM of less than 40%. Moreover, the viability at 6 h, 1.87 mM in data set [4] (1.87 mM phenylalanine assemblies) turned out to be 56%. In data set [4] (7.5 mM phenylalanine assemblies), this compound gave a viability at 6 h, 7.5 mM of 44%. The viability at 1.8 mM in data set [5] (1.8 mM phenylalanine) was approximately 80%. Moreover, the viability at 7.5 mM in data set [5] (7.5 mM phenylalanine) was approximately 65%.

The values above are taken from patent US9061006B2, “Compositions and methods for diagnosing and treating phenylketonuria (PKU)” (Ramot at Tel-Aviv University Ltd., priority 2011, dated 2015).
